Assay: in vitro
Details: human, hela cells, % viability

SMILES | viability at 28.5 h, 10 µM [%] | viability at 28.5 h, 10 µM (bulk resorufin, single well) [%]
O=C(O)c1cc(S(=O)(=O)NCc2ccccc2)ccc1Br [CBK261768] | 96.9 | –
Cc1ccc(S(=O)(=O)c2ccc(C)c(S(=O)(=O)N3CCCC3)c2)cc1S(=O)(=O)N1CCCC1 [CBK261772] | 78.9 | –
O=C(NCCCn1ccnc1)c1cc([N+](=O)[O-])cc([N+](=O)[O-])c1 [CBK261773] | – | 87.5
CC1CCN(S(=O)(=O)c2ccc(Oc3ccc([N+](=O)[O-])cc3)cc2)CC1 [CBK261774] | 98 | –
O=C(N/N=C/c1ccc([N+](=O)[O-])cc1)c1ccccc1Cl [CBK261775] | 88.7 | –
O=C(O)c1cc(-c2cccc(O)c2)nc2ccc(Br)cc12 [CBK261777] | 97.9 | –
O=C(c1ccc([N+](=O)[O-])cc1Cl)N1CCN(Cc2ccccc2)CC1 [CBK261778] | 103 | –
Nc1ccccc1CC(c1c[nH]c2ccccc12)c1c[nH]c2ccccc12 [CBK261780] | 103 | –
CCOc1ccccc1OCC(=O)NN [CBK261782] | 93.2 | –
CCN(CC)CCCCSc1ccc(O)cc1 [CBK261785C] | 95.7 | –
O=C(Nc1cccc(-c2nc3ccccc3s2)c1)c1ccc(S(=O)(=O)N2CCCC2)cc1 [CBK261787] | 96.7 | –
O=C(O)/C=C/C(=O)NNC(=O)c1ccccc1O [CBK261789] | 97.4 | –
CCCOc1ccc(-c2cn(CC(=O)NN)cn2)cc1 [CBK261790] | 106 | –
Cc1ccc(C(=O)NNC(=O)c2ccc([N+](=O)[O-])cc2)cc1 [CBK261793] | 89.5 | –
c1ccc(Oc2cccc(C(N3CCOCC3)N3CCOCC3)c2)cc1 [CBK261798] | 104 | –
Cc1ccc(OCC(=O)NNC(=O)c2ccco2)cc1 [CBK261800] | 96.1 | –
Cc1cc(/C=N\NC(=O)c2cc3ccccc3cc2O)c(C)n1-c1ccccc1 [CBK261801] | 84.6 | –
c1ccc(Nc2ccccc2Nc2ccccn2)nc1 [CBK261806] | 93.5 | –

SMILES | viability at 28.5 h, 10 µM [%] | viability at 28.5 h, 10 µM (bulk resorufin, single well) [%]
O=C(Nc1sc2c(c1CN1CCCCCC1)CCCC2)c1ccccc1 [CBK261811] | 91 | –
C/C(=N\N)c1ccc2[nH]c3c(c2c1)CCC/C3=N\N [CBK261812] | 81.2 | –
Nc1nonc1NC(=O)N/N=C/c1ccc(C(F)(F)F)cc1 [CBK261813] | 99.8 | –
CC(Sc1nc2c(N)ncnc2[nH]1)C(=O)O (stereo not drawn) [CBK261814] | 106 | –
O=C(N/N=C/c1c(F)cccc1Cl)c1ccccc1O [CBK261815] | 113 | –
C(=N\N=C(/c1ccccc1)C12CN3CN(CN(C3)C1)C2)/c1ccc2c(c1)OCO2 [CBK261816] | 102 | –
O=C1NC(=S)NC(=O)C1=Cc1ccc(-c2ccc([N+](=O)[O-])cc2Cl)o1 [CBK261820] | – | 89.2
O=C(N/N=C/c1ccc([N+](=O)[O-])cc1)C(=O)Nc1cccc(Cl)c1 [CBK261821] | 95.8 | –
CCOc1ccc(NC(=O)C(=O)NC2CCCCC2)cc1 [CBK261822] | 105 | –
CC1(C)CC(=O)C2=C(C1)c1c(ccc3ccccc13)NC2c1ccc(-c2ccc(O)c(C(=O)O)c2)o1 (stereo not drawn) [CBK261823] | 108 | –
O=C1NC(=S)N(c2ccc(F)cc2)C(=O)/C1=C\NC1CCN(Cc2ccccc2)CC1 [CBK261825] | – | 93
CN(C)CCN/C=C1/C(=O)NC(=S)N(c2ccccc2Cl)C1=O [CBK261826] | – | 86.4
Cc1cccc(N2C(=O)NC(=O)/C(=C/NC3CCN(Cc4ccccc4)CC3)C2=O)c1 [CBK261827] | – | 92.2
CC1(C(=O)O)CCC(C(=O)O)C1(C)C (stereo not drawn) [CBK261830] | 96.1 | –
O=[N+]([O-])c1ccc(O)c(/C=N/C(CO)(CO)CO)c1 [CBK261835] | 89.3 | –
O=C(O)CC1c2ccccc2Oc2ccccc21 [CBK261836] | 92 | –
CC1=NN(c2ccccc2)C(=O)/C1=C(/C)NNC(=O)c1ccccn1 [CBK261837] | 91.7 | –
O=C(O)/C(O)=C/C(=O)c1ccc(Cl)cc1 [CBK261841] | 111 | –
